Consider three substances from patent US11279736B2, “Conformationally-preorganized, MiniPEG-containing gamma-peptide nucleic acids” (CARNEGIE MELLON UNIVERSITY, priority 2011, dated 2022).

Common to all, as to type: binding
For data set [1], the system named is immobilized complementary DNA. Briefly: Surface plasmon resonance (SPR) hybridization kinetics. Conditions: for Kd / association rate constant ka / dissociation rate constant kd: SPR; for Kd: ratio of dissociation and association rate constants, † values uncertain, read-out: equilibrium dissociation constant Kd; for association rate constant ka / dissociation rate constant kd: 1:1 binding model; for dissociation rate constant kd: † values approach limits of detection. The method, then:
FIG. 4 illustrates surface plamon resonance (SPR) sensorgrams (solid black lines) and fits (dotted lines) for hybridization of PNA probes to immobilized complementary DNA. Solutions contained 30 nM PNA. Error bars at t=420 sec illustrate standard deviations for three separate trials.
Surface plasmon resonance (SPR) analysis is used to study the hybridization kinetics of ^R-MPγPNA-DNA and ^R-MPγPNA-RNA duplexes. Briefly, SPR was performed as follows. According to one embodiment, the PNA probe was immobilized to the chip while the DNA target was captured from solution. In another embodiment, a biotinylated version of the DNA target is immobilized on a streptavidin-conjugated, carboxymethylated dextran chip at a relatively low surface density (ca. 100 response units) of DNA targets to limit mass transport effects on the association kinetics. Solutions containing 10-50 nM PNA oligomers are allowed to flow over the chip for about 420 seconds, at which point the flow is switched to a PNA-free buffer to allow net dissociation of the hybridized PNA.
(In general: In SPR one partner is held on a chip, and binding of the other changes the refractive index at the surface.)

For a further data set, the system named is complementary DNA strand. Briefly: UV-melting / van't Hoff analysis of PNA-DNA hybrid duplexes. Particulars: PNA-DNA duplex, 298 K; for Kd: UV melting; for −ΔG° / −ΔH° / −ΔTS°: averages of three trials. The method, then: (§1) FIGS. 2A-2B illustrate UV-melting profiles of PNA-DNA (FIG. 2A) and PNA-RNA (FIG. 2B) hybrid duplexes at a strand concentration of […] each in 10 mM sodium phosphate buffer at pH 7.4. While both the heating and cooling runs were performed because they both have nearly identical profiles UV-melting for only the heating runs are shown.
UV-melting experiments were performed to determine the effect of MP on the thermal stability of PNA oligomers following hybridization to DNA or an RNA. FIG. 3A illustrates that the incorporation of a single miniPEG side-chain stabilized a PNA-DNA duplex by 4° C. […] However, increase in thermal stability tapers off to a value of about 2.3° C. per unit for the fully-modified oligomer, that is an oligomer made up of R-MP-γPNA groups only (e.g., PNA5).
(§2) Further insights related to the contribution of miniPEG to the stability of the PNA-DNA duplex was obtained from van′t Hoff analysis. Data in Table 2 show the thermodynamic parameters associated with hybridization of PNA1 through 5 to a complementary DNA or RNA strand.

The next data set concerns complementary RNA strand. Briefly: UV-melting / van't Hoff analysis of PNA-RNA hybrid duplexes. Particulars: PNA-RNA duplex; 298 K; UV-melting curve fitting. The method, then:
as §1
A similar pattern is observed for a R-MP-γPNA-RNA duplex, but the observed increase in thermal stability is lower for a R-MP-γPNA-RNA duplex as compared to a R-MP-γPNA-DNA duplex (FIG. 3B). The enhancement in thermal stability of a R-MP-γPNA-RNA duplex is only 3° C. for the first R-MP-γPNA-monomer that is incorporated into the PNA oligomer and this gain in thermal stability reduces to about 1.2° C. per R-MP-γPNA monomer for an oligomer made entirely R-MP-γPNA (PNA5). In contrast the gain in thermal stability is about 2.3° C./unit for R-MP-γPNA-DNA duplexes.
as §2

[RMPγPNA-N] = PNA unit with R-MP-gamma backbone modification (N: the base)

Broadly, the Kd is the concentration at which binding is half-saturated. Turning to “H-GCATGTTTGA-NH2 (all [RMPγPNA-N], methylation of C not given here; C-terminal amide) [PNA5]”, the Kd in data set [1] came to 0.054 nM.

As for “H-GCATGTTTGA-NH2 [PNA3] (PNA; 3 R-MP-gamma units; C-terminal amide; modified_base (4)..(4) R-MP-gamma-backbone modified nucleotide; modified_base (6)..(6) R-MP-gamma-backbone modified nucleotide; modified_base (8)..(8) R-MP-gamma-backbone modified nucleotide)”, in data set [1], the “association rate constant ka” value is 620000 M⁻¹ s⁻¹, the “dissociation rate constant kd” value is 0.00019 s⁻¹ and the Kd was 0.3 nM. Moreover, in the data set on complementary DNA strand, binding was put at a Kd of 0.051 nM, the “−ΔG°” value was determined as 14.1 ± 0.24 kcal/mol, the “−ΔH°” value is 75.5 ± 2.63 kcal/mol and the “−ΔTS°” value is 61.2 ± 2.63 kcal/mol. Besides, in the data set with complementary RNA strand, the “−ΔG°” value stood at 17 kcal/mol, the “−ΔH°” value was 83.7 kcal/mol and the “−ΔTS°” value amounted to 66.9 kcal/mol.

Take “H-GCATGTTTGA-NH2 [PNA4] (PNA; 5 R-MP-gamma units; C-terminal amide; modified_base (2)..(2) R-MP-gamma-backbone modified nucleotide; modified_base (4)..(4) R-MP-gamma-backbone modified nucleotide; modified_base (6)..(6) R-MP-gamma-backbone modified nucleotide; modified_base (8)..(8) R-MP-gamma-backbone modified nucleotide; modified_base (10)..(10) R-MP-gamma-backbone modified nucleotide)”: in data set [1], the “association rate constant ka” value amounted to 660000 M⁻¹ s⁻¹, the “dissociation rate constant kd” value is 0.3 × 10^−4 ^† s^−1 and the Kd came to 0.041 nM. For the same substance, the “SPR-derived Kd relative to Kd determined by UV melting experiments” value in data set [1] (Table 3 versus Table 2, DNA target) came to 12 fold. Also, in the data set with complementary DNA strand, the affinity, expressed as Kd, was 0.0035 nM; the “−ΔG°” value came to 15.5 ± 0.24 kcal/mol; the “−ΔH°” value worked out at 78.6 ± 3.35 kcal/mol; the “−ΔTS°” value was found to be 63.3 ± 2.87 kcal/mol. For the same substance, in the data set with complementary RNA strand, the “−ΔG°” value amounted to 17.4 kcal/mol, the “−ΔH°” value came out at 85.1 kcal/mol and the “−ΔTS°” value worked out at 67.6 kcal/mol.
